Values of other authors as cited in patent publication US20030039681A1, “Rapid growth dairy heifers having reduced mammary fat content” (priority 2001, published 2003).

What was measured:
[1] = tested on: adipose tissue; conditions: growing pigs, CLA-supplement fed
[2] = tested on: preadipocytes
[3] = tested on: lactating dairy cattle; conditions: abomasal infusion

Q: Which carcass lipid content [1] does the source give for conjugated linoleic acid [CLA] here?
A: The carcass lipid content was “lower”.

Q: What about the “lipogenesis in adipose tissue” value [1] of the same substance?
A: The value was “decreases”.

Q: What about the proliferation of preadipocytes [2] of the same substance?
A: Its proliferation of preadipocytes is “inhibits”.

Q: And the milk fat content [3]?
A: Its milk fat content is “decreases”.
